Measured values from EPA's ToxRefDB 2.

Assays:
rat [1] = details: Combined chronic toxicity/carcinogenicity, wistar, Oral, Feed, dose end: 24 month, group: systemic
rat [2] = details: Subchronic oral toxicity in rodents, sprague dawley, Feed, dose end: 90 day, group: systemic, systemic / in life observation / clinical signs / altered breathing rate + systemic / in life observation / food consumption / food …
dog [3] = details: Subchronic oral toxicity in nonrodent, beagle, Feed, dose end: 90 day, group: systemic, systemic / hematology / hematocrit (hct) / hematocrit (hct) + systemic / hematology / hemoglobin (hgb) / hemoglobin (hgb) + systemic / …
mouse [4] = details: Carcinogenicity, cd1, Oral, Gavage/Intubation, dose end: 16 PND, group: systemic
mouse [5] = details: Carcinogenicity, other, Oral, Gavage/Intubation, dose end: 6 month, group: systemic
mouse [6] = details: Carcinogenicity; other; Oral; Gavage/Intubation; dose end: 6 month; group: systemic; systemic / in life observation / clinical signs / abnormal gait + systemic / in life observation / clinical signs / ataxia + systemic / in …
mouse [7] = details: Carcinogenicity, other, Oral, Gavage/Intubation, dose end: 6 month, group: systemic; remark: listed apart in the source
rat [8] = details: Multigenerational reproductive toxicity study, sprague dawley, Oral, Feed, dose end: 2 generation
rat [9] = details: Prenatal developmental toxicity study, sprague dawley, Oral, Gavage/Intubation, dose end: 15 GD, group: maternal
dog [10] = details: Subchronic oral toxicity in nonrodent, beagle, Capsule, dose end: 13 week, group: systemic
dog [11] = details: Chronic toxicity, beagle, Oral, Capsule, dose end: 53 week, group: systemic
rat [12] = details: Subchronic oral toxicity in rodents, fischer, Feed, dose end: 3 month, group: systemic, systemic / organ weight / liver / absolute + systemic / organ weight / liver / relative to body weight + systemic / pathology microscopic / …
mouse [13] = details: Carcinogenicity, b6c3f1, Oral, Feed, dose end: 2 year, group: systemic
rat [14] = details: Carcinogenicity, fischer, Inhalation, Whole-Body, dose end: 105 week, group: systemic
rat [15] = details: Subchronic inhalation toxicity, fischer, Whole-Body, dose end: 14 week, group: systemic
mouse [16] = details: Carcinogenicity, b6c3f1, Inhalation, Whole-Body, dose end: 105 week, group: systemic
mouse [17] = details: Subchronic inhalation toxicity, b6c3f1, Whole-Body, dose end: 14 week, group: systemic
[18] = systemic / organ weight / heart / absolute
[19] = systemic / in life observation / body weight / body weight gain + systemic / in life observation / clinical signs / dehydration + systemic…
[20] = systemic / in life observation / clinical signs / body temperature + systemic / in life observation / clinical signs / dehydration + …
[21] = systemic / pathology microscopic / liver / hypertrophy
[22] = systemic / clinical chemistry / alanine aminotransferase (alt/sgpt) / alanine aminotransferase (alt/sgpt) + systemic / clinical chemistry / …
[23] = systemic / clinical chemistry / cholesterol / cholesterol + systemic / clinical chemistry / cholesterol / cholesterol, direct ldl + systemic…
[24] = group: offspring, systemic / in life observation / body weight / offspring (pup) weight
[25] = group: offspring, systemic / in life observation / body weight / offspring (pup) weight + developmental / offspring survival late / viability index / …
[26] = group: parental, systemic / organ weight / liver / absolute + systemic / organ weight / liver / relative to body weight + systemic / pathology microscopic / …
[27] = group: reproductive, reproductive / offspring survival early / litter size / litter size
[28] = systemic / in life observation / body weight / body weight + systemic / in life observation / body weight / body weight gain + systemic / in…
[29] = systemic / pathology microscopic / spleen / pigmentation
[30] = systemic / pathology microscopic / spleen / pigmentation + systemic / in life observation / clinical signs / emesis + systemic / pathology …
[31] = systemic / pathology microscopic / liver / pigmentation + systemic / clinical chemistry / alanine aminotransferase (alt/sgpt) / alanine …
[32] = systemic / pathology microscopic / liver / hyperplasia + systemic / organ weight / liver / absolute + systemic / organ weight / liver / …
[33] = systemic / pathology microscopic / kidney / hyperplasia + systemic / pathology microscopic / nose / atrophy + systemic / pathology …
[34] = systemic / pathology microscopic / nose / atrophy + systemic / pathology microscopic / nose / hyperplasia + systemic / pathology microscopic…
[35] = systemic / in life observation / body weight / body weight + systemic / in life observation / body weight / body weight gain + systemic / …
[36] = systemic / pathology microscopic / nose / metaplasia
[37] = systemic / in life observation / body weight / body weight + systemic / pathology microscopic / eye / degeneration + systemic / pathology …
[38] = systemic / in life observation / body weight / body weight + systemic / pathology microscopic / nose / degeneration + systemic / pathology …
[39] = systemic / organ weight / heart / absolute + systemic / pathology microscopic / nose / degeneration + systemic / pathology microscopic / …
[40] = systemic / pathology microscopic / nose / hyaline droplet + systemic / pathology microscopic / nose / degeneration

In the case of `NCCO.O=C(Nc1ccc([N+](=O)[O-])cc1Cl)c1cc(Cl)ccc1O` [Clonitralid], the LOAEL (rat [1]; systemic / in life observation / body weight / body weight gain) is reported as 410 mg/kg/day, the NOAEL (rat [1]; systemic / in life observation / body weight / body weight gain + systemic / clinical chemistry / alanine aminotransferase (alt/sgpt) / …) is reported as 100 mg/kg/day and the LEL (rat [1]; [18]) is reported as 20 mg/kg/day. It also gave an NEL (rat [1]; [18]) of under 20 mg/kg/day.

With `O.O.O.O.O.O.O.O.O.O.[Na+].[Na+].[O-]B1OB2OB([O-])OB(O1)O2` [Borax] the LEL (rat [2]) was 770 mg/kg/day, the LOAEL (rat [2]) was 770 mg/kg/day and the NEL (rat [2]) was 232 mg/kg/day. For the same compound, the NOAEL (rat [2]) was 232 mg/kg/day, the LEL (dog [3]) was 192 mg/kg/day and the LOAEL (dog [3]) was 192 mg/kg/day. For the same compound, the NEL (dog [3]) was 22 mg/kg/day and the NOAEL (dog [3]) was 22 mg/kg/day.

Work on `CCOC(=O)C(C)(C)Oc1ccc(Cl)cc1` [Clofibrate] yielded an LOAEL (mouse [4]; [19]) of over 500 mg/kg/day, an NEL (mouse [4]; [19]) of 100 mg/kg/day and an NOAEL (mouse [4]; [19]) of at least 500 mg/kg/day. It also gave an LEL (mouse [4]; systemic / in life observation / clinical signs / palpable mass) of 250 mg/kg/day, an LOAEL (mouse [5]; [20]) of over 650 mg/kg/day and an NOAEL (mouse [5]; [20]) of at least 650 mg/kg/day. It also gave an LEL (mouse [5]; [21]) of 50 mg/kg/day, an NEL (mouse [5]; [21]) of under 50 mg/kg/day and an LEL (mouse [6]) of 200 mg/kg/day. For the same compound, the LOAEL (mouse [6]) was over 500 mg/kg/day, the NEL (mouse [6]) was 50 mg/kg/day and the NOAEL (mouse [6]) was at least 500 mg/kg/day. It also gave an LOAEL (mouse [7]; [22]) of over 250 mg/kg/day, an NOAEL (mouse [7]; [22]) of at least 250 mg/kg/day and an LEL (mouse [7]; [23]) of 50 mg/kg/day. For the same compound, the NEL (mouse [7]; [23]) was under 50 mg/kg/day.

For `CCCCN(CC)c1c([N+](=O)[O-])cc(C(F)(F)F)cc1[N+](=O)[O-]` [Benfluralin], the LEL (rat [8]; [24]) was 74.4 mg/kg/day, the LOAEL (rat [8]; [24]) was 74.4 mg/kg/day and the NEL (rat [8]; [25]) was 7.3 mg/kg/day. For the same compound, the NOAEL (rat [8]; [25]) was 7.3 mg/kg/day, the LEL (rat [8]; [26]) was 68.1 mg/kg/day and the LOAEL (rat [8]; [26]) was 68.1 mg/kg/day. It also gave an NEL (rat [8]; [26]) of 7.2 mg/kg/day, an NOAEL (rat [8]; [26]) of 7.2 mg/kg/day and an LEL (rat [8]; [27]) of 401 mg/kg/day. The LOAEL (rat [8]; [27]) was 401 mg/kg/day, the NEL (rat [8]; [27]) was 74.4 mg/kg/day and the NOAEL (rat [8]; [27]) was 74.4 mg/kg/day. For the same compound, the LOAEL (rat [9]; systemic / in life observation / body weight / body weight + systemic / in life observation / body weight / body weight gain) was 1000 mg/kg/day, the NEL (rat [9]; [28]) was 225 mg/kg/day and the NOAEL (rat [9]; [28]) was 475 mg/kg/day. For the same compound, the LEL (rat [9]; systemic / in life observation / body weight / body weight + systemic / in life observation / food consumption / food consumption) was 475 mg/kg/day, the LEL (dog [10]; [29]) was 25 mg/kg/day and the LOAEL (dog [10]; [29]) was 25 mg/kg/day. For the same compound, the NEL (dog [10]; [30]) was 5 mg/kg/day, the NOAEL (dog [10]; [30]) was 5 mg/kg/day and the LOAEL (dog [11]; systemic / pathology microscopic / liver / pigmentation) was 25 mg/kg/day. For the same compound, the LEL (dog [11]; [31]) was 25 mg/kg/day, the NEL (dog [11]; [31]) was 5 mg/kg/day and the NOAEL (dog [11]; [31]) was 5 mg/kg/day. The LEL (rat [12]) was 16.8 mg/kg/day, the LOAEL (rat [12]) was over 522 mg/kg/day and the NEL (rat [12]) was 3.23 mg/kg/day. The NOAEL (rat [12]) was at least 522 mg/kg/day, the LOAEL (mouse [13]; systemic / pathology microscopic / liver / hyperplasia) was 185 mg/kg/day and the LEL (mouse [13]; [32]) was 185 mg/kg/day. For the same compound, the NEL (mouse [13]; [32]) was 36.4 mg/kg/day and the NOAEL (mouse [13]; [32]) was 36.4 mg/kg/day.

For `OCc1ccco1` [Furfuryl alcohol], the LOAEL (rat [14]; [33]) was over 32 ppm, the NOAEL (rat [14]; [33]) was at least 32 ppm and the LEL (rat [14]; [34]) was 2 ppm. For the same compound, the NEL (rat [14]; [34]) was under 2 ppm, the LOAEL (rat [15]; [35]) was over 32 ppm and the NOAEL (rat [15]; [35]) was at least 32 ppm. It also gave an LEL (rat [15]; [36]) of 2 ppm, an NEL (rat [15]; [36]) of under 2 ppm and an LOAEL (mouse [16]; [37]) of over 32 ppm. It also gave an NOAEL (mouse [16]; [37]) of at least 32 ppm, an LEL (mouse [16]; [38]) of 2 ppm and an NEL (mouse [16]; [38]) of under 2 ppm. For the same compound, the LOAEL (mouse [17]; [39]) was over 32 ppm, the NOAEL (mouse [17]; [39]) was at least 32 ppm and the LEL (mouse [17]; [40]) was 2 ppm. The NEL (mouse [17]; [40]) was under 2 ppm.
